Measured values published in patent US11352350B2, “IRAK degraders and uses thereof” (Kymera Therapeutics, Inc., priority 2018, dated 2022).
Where two headings read alike, the source gives them in different places.

Legend:
[1] = test system: OCI-LY10 tumor cells; experiment: OCI-LY10 large B lymphoma xenograft model in C.B. 17 SCID mice; type: in vivo, mouse
Experimental: Cell Culture: The OCI-LY10 or TMD8 tumor cells were maintained as suspension in RPMI1640 medium supplemented with 10% fetal bovine serum, 100 U/mL penicillin and 100 μg/mL streptomycin at 37° C. in an atmosphere of 5% CO2 in air. The tumor cells were routinely subcultured twice weekly by trypsin-EDTA treatment. The cells growing in an exponential growth phase were harvested and counted for tumor inoculation.
Animals: C.B. 17 SCID, female, 6-8 weeks, weighing approximately 16-18 g were used. Animals were housed and maintained according to IACUC protocols.
Tumor Inoculation: Each mouse was inoculated subcutaneously at the right flank with OCI-LY10 or TMD8 tumor cells (10×10^6) in 0.2 mL of PBS with matrigel for tumor development. The treatments were started when the tumor sizes reached approximately 150-450 mm^3 for the studies.
Assignment to Groups: Before commencement of treatment, all animals were weighed and the tumor volumes were measured. Since the tumor volume can affect the compound PK/PD, mice are assigned into groups using an Excel-based randomization procedure performing stratified randomization based upon their tumor volumes.
Observation: After tumor inoculation, the animals were checked daily for morbidity and mortality. During routine monitoring, the animals were checked for any effects of tumor growth and treatments on behavior such as mobility, food and water consumption, body weight gain/loss, eye/hair matting and any other abnormalities. Mortality and observed clinical signs were recorded for individual animals in detail.
Data Collection: Tumor volumes were measured in two dimensions using a caliper, and the volumes were expressed in mm^3 using the formula: “V=(L×W×W)/2, where V is tumor volume, L is tumor length (the longest tumor dimension) and W is tumor width (the longest tumor dimension perpendicular to L).
(§1) At termination: At pre-determined time points based on study design, animals were humanely sacrificed by CO2. Blood was obtained by cardiac puncture for isolation of plasma, any residual tumor was removed and divided in 2 portions, 1 (minimal) for terminal compound exposure and 1 to determine IRAK4 and actin. Compound was determined in tumor and plasma using LC/MS with calibrated standards.

[2] = test system: TNFα; experiment: Human PBMC LPS TNFα assay; type: cell-based; settings: hPBMC, LPS stimulation, read-out: IRAK4 hPBMC LPS TNF-α inhibition: Average external-IC50
How it was run: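 Thawed human PBMCs (200,000/well) were pretreated 20 h at 37 °C with compound (8-point, 5-fold dilutions from 2 μM), then stimulated with 100 ng/ml LPS for 5 h. Supernatant TNFα was measured by MSD V-plex, normalized to LPS-stimulated and unstimulated controls, and IC50 obtained by free-fit 4-parameter logistic regression.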

[3] = molecular target: IRAK4 (Homo sapiens (Human), UniProt Q9NWZ3); experiment: IRAK4 quantification in xenograft tumors by UPLC-MS/MS (tumor PD); type: in vivo, mouse; settings: OCI-LY10 xenograft-bearing mice, oral dosing; FIG. 14
Sequence of IRAK4 (Q9NWZ3 whole entry): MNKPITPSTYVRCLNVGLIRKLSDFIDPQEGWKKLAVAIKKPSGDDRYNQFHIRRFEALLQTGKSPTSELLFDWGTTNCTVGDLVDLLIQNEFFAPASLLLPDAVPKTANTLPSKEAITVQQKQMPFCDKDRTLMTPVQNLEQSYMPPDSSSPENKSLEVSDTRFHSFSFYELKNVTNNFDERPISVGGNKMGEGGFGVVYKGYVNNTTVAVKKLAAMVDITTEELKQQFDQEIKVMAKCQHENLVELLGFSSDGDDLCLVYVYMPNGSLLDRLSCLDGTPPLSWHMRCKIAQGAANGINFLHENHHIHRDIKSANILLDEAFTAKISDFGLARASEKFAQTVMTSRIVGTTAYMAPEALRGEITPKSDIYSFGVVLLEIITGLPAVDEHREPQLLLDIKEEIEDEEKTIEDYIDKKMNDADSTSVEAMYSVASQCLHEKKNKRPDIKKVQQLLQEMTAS
Experimental: as §1
Interleukin-1 receptor-associated kinase 4 (IRAK4) was quantified in human OCI-LY10 and TMD8 xenograft tumors, together with mouse splenocytes and peripheral blood mononuclear cells (PBMCs), by ultra-performance liquid chromatography-tandem mass spectrometry (UPLC-MS/MS). The concentrations of IRAK4 were normalized by the concentrations of actin in the respective samples. […]
Signature peptide concentrations were quantitated using a sensitive and specific targeted LC-MS/MS method. […]
Signature peptide levels (LAVAIK, […]) were quantified by UPLC-MS/MS. […] A SCIEX TripleTOF 6600 LC-MS/MS system was used for the detection and quantitation of analytes. The intensities of the analytes and ISs were determined by integration of extracted ion peak areas using Analyst and MultiQuant 3.0 software. […] Measured peptide levels were corrected for sample work up and converted to actual protein concentrations in ng/mg total protein of cell lysate. […]

[4] = test system: OCI-LY19; experiment: OCI-LY19 viability, CTG; type: cell-based; settings: Homo sapiens, OCI-LY19

| SMILES | antitumor effect in OCI-LY10 xenograft ([1]; FIG. 6 A-C) | in vivo tumor growth inhibition, combination with ibrutinib ([1]; OCI-LY10 (MYD88 L265P, CD79 mutant), combination of I-30 and ibrutinib at sub-optimal single agent concentrations, FIG. 13) | in vivo tumor growth of implanted OCI-LY10 (MYD88 mutant) cells ([1]; PO BID administration, FIG. 7) | IC50 [2] | antitumor activity against OCI-LY10, oral dosing ([1]; xenograft-bearing mice, FIG. 14) | degradation of IRAK4 correlating with tumor regression [3] | IC50 ([4]; MYD88 WT Lines, read-out: OCI-LY19 Viability, CTG IC50) | IC50 ([4]; MYD88 WT, read-out: OCI-LY19 CTG IC50) |
| --- | --- | --- | --- | --- | --- | --- | --- | --- |
| CN(CCCOCCCc1cccc2c1n(C)c(=O)n2C1CCC(=O)NC1=O)C[C@H]1CC[C@H](n2cc(NC(=O)c3coc(-c4ccnc(NCC5CC5)c4)n3)c(C(F)F)n2)CC1 (mixture of isomers) [I-30, 2-[2-(Cyclopropylmethylamino)-4-pyridyl]-N-[3-(difluoromethyl)-1-[4-[[3-[3-[1-(2,6-dioxo-3-piperidyl)-3-methyl-2-oxo-benzimidazol-4-yl]propoxy]propyl-methyl-amino]methyl]cyclohexyl]pyrazol-4-yl] oxazole-4-carboxamide] | causes tumor regression | synergistic in vivo tumor growth inhibition | inhibits in vivo tumor growth | 50 to 100 nM |  |  |  |  |
| CN(C[C@H]1CC[C@H](n2cc(NC(=O)c3coc(-c4ccnc(NCC5CC5)c4)n3)c(C(F)F)n2)CC1)C1CCN(Cc2cccc3c2n(C)c(=O)n3C2CCC(=O)NC2=O)CC1 (stereo partly drawn) [I-75, 2-(2-((cyclopropylmethyl)amino)pyridin-4-yl)-N-(3-(difluoromethyl)-1-((1r,4r)-4-(((1-((1-(2,6-dioxopiperidin-3-yl)-3-methyl-2-oxo-2,3-dihydro-1H-benzo[d]imidazol-4-yl)methyl)piperidin-4-yl)(methyl)amino)methyl)cyclohexyl)-1H-pyrazol-4-yl)oxazole-4-carboxamide] |  |  |  | < 50 nM | dose-dependent antitumor activity | > 75% | 480 nM | 480 nM |
